Measured values published in patent US11512203B2, “Water-soluble azo compound or salt thereof, ink and recording medium” (Nippon Kayaku Kabushiki Kaisha, priority 2016, dated 2022).

Assay: Xenon light resistance test, ink of Example 18 (Table 58)
Assay type: physicochemical
Conditions: for each glossy paper (Table 58)
Description: An ink of Example 18 was prepared as in Example 1 except that the compound represented by the above formula (200) was used instead of the compound represented by the above formula (101).
Ink-jet recording was performed with an ink-jet printer (Canon, Inc., Product name: PIXUS ip7230) to allow each of the inks from Example 18 and Comparative Examples 1, 2 above to be attached on the following glossy papers 1 to 4. Upon performing recording, image patterns were created so that the density can be obtained in a gradation of 6 levels: 100%, 85%, 70%, 55%, 40%, and 25% to obtain a half-tone recorded article. The resulting recorded article was used as a test piece to perform the following tests.
Glossy paper 1: Canon, Inc., Product name: Canon Photograph paper, platinum grade (PT-201)
Glossy paper 2: Seiko Epson Corporation, Product name: Photograph paper Crispia
Glossy paper 3: Brother Industries, Ltd., Product name: BP71G
Glossy paper 4: FUJIFILM Corporation, Product name: Gasai Photo-finishing Pro
When required, color measurements of a recorded image were performed using a colorimeter (Product name SpectroEye from X-rite, Inc.). Color measurements were performed under the conditions of a density standard of DIN NB, a wide viewing angle of 2 degrees, a light source of D65. […]

O=S(=O)(O)CCCOc1cc(N=Nc2ccc(Cl)c(S(=O)(=O)O)c2)c(Cl)cc1Nc1nc(Nc2cc(Cl)c(N=Nc3ccc(Cl)c(S(=O)(=O)O)c3)cc2OCCCS(=O)(=O)O)nc(N2CCN(c3nc(Nc4cc(Cl)c(N=Nc5ccc(Cl)c(S(=O)(=O)O)c5)cc4OCCCS(=O)(=O)O)nc(Nc4cc(Cl)c(N=Nc5ccc(Cl)c(S(=O)(=O)O)c5)cc4OCCCS(=O)(=O)O)n3)CC2)n1 [Example 18]
light resistance tests, results compared with Comparative Examples 1, 2: better results
